Test results from ChEMBL document CHEMBL2440076, “New triarylpyrazoles as broad-spectrum anticancer agents: design, synthesis, and biological evaluation” (Eur J Med Chem, 2013).

Key:
Format in all cases: functional
NCI-H322M = test: Growth inhibition of human NCI-H322M cells assessed as cell growth at 10 uM after 48 hrs by sulforhodamine B assay; settings: read-out: Activity
SK-MEL-5 = test: Growth inhibition of human SK-MEL-5 cells assessed as cell growth at 10 uM after 48 hrs by sulforhodamine B assay; settings: SK-MEL-5, 48 h, read-out: Activity
UACC-62 = test: Growth inhibition of human UACC62 cells assessed as cell growth at 10 uM after 48 hrs by sulforhodamine B assay; settings: UACC-62, 48 h, read-out: Activity
786-0 = test: Growth inhibition of human 786-0 cells assessed as cell growth at 10 uM after 48 hrs by sulforhodamine B assay; settings: 786-0, 48 h, read-out: Activity
SNB-19 = test: Growth inhibition of human SNB19 cells assessed as cell growth at 10 uM after 48 hrs by sulforhodamine B assay; settings: SNB-19, 48 h, read-out: Activity
MDA-MB-435 = test: Growth inhibition of human MDA-MB-435 cells assessed as cell growth at 10 uM after 48 hrs by sulforhodamine B assay; settings: MDA-MB-435, 48 h, read-out: Activity
TK-10 = test: Growth inhibition of human TK10 cells assessed as cell growth at 10 uM after 48 hrs by sulforhodamine B assay; settings: TK-10, 48 h, read-out: Activity
RXF 393 = test: Growth inhibition of human RXF393 cells assessed as cell growth at 10 uM after 48 hrs by sulforhodamine B assay; settings: RXF 393, 48 h, read-out: Activity
LOX IMVI = test: Growth inhibition of human LOXIMVI cells assessed as cell growth at 10 uM after 48 hrs by sulforhodamine B assay; settings: read-out: Activity
SF-539 = test: Growth inhibition of human SF539 cells assessed as cell growth at 10 uM after 48 hrs by sulforhodamine B assay; settings: SF-539, 48 h, read-out: Activity
A549 = test: Growth inhibition of human A549/ATCC cells assessed as cell growth at 10 uM after 48 hrs by sulforhodamine B assay; settings: A549, 48 h, read-out: Activity
NCI-H460 = test: Growth inhibition of human NCI-H460 cells assessed as cell growth at 10 uM after 48 hrs by sulforhodamine B assay; settings: NCI-H460, 48 h, read-out: Activity
SF-268 = test: Growth inhibition of human SF268 cells assessed as cell growth at 10 uM after 48 hrs by sulforhodamine B assay; settings: SF-268, 48 h, read-out: Activity
HL-60(TB) = test: Growth inhibition of human HL-60(TB) cells assessed as cell growth at 10 uM after 48 hrs by sulforhodamine B assay; settings: HL-60, 48 h, read-out: Activity
SN12C = test: Growth inhibition of human SN12C cells assessed as cell growth at 10 uM after 48 hrs by sulforhodamine B assay; settings: read-out: Activity
BT-549 = test: Growth inhibition of human BT549 cells assessed as cell growth at 10 uM after 48 hrs by sulforhodamine B assay; settings: BT-549, 48 h, read-out: Activity
[1] = Growth inhibition of human Hs 578T cells assessed as cell growth at 10 uM after 48 hrs by sulforhodamine B assay; settings: read-out: Activity

| Compound | growth at 10 µM (NCI-H322M) | growth at 10 µM (SK-MEL-5) | growth at 10 µM (UACC-62) | growth at 10 µM (786-0) | growth at 10 µM (SNB-19) | growth at 10 µM (MDA-MB-435) | growth at 10 µM (TK-10) | growth at 10 µM (RXF 393) | growth at 10 µM (LOX IMVI) | growth at 10 µM (SF-539) | growth at 10 µM (A549) | growth at 10 µM (NCI-H460) | growth at 10 µM (SF-268) | growth at 10 µM (HL-60(TB)) | growth at 10 µM (SN12C) | growth at 10 µM (BT-549) | growth at 10 µM [1] |
| --- | --- | --- | --- | --- | --- | --- | --- | --- | --- | --- | --- | --- | --- | --- | --- | --- | --- |
| O=C(Nc1cccc(-n2cc(-c3ccncc3)c(-c3ccc(Cl)c(O)c3)n2)c1)c1ccccc1 | 89.2% | 59.4% | 68.3% | 76.1% | 99.7% | 56.1% | 109% | 0.59% | 68.5% | 74.7% | 52.6% | 48.7% | 68.3% | 167% | 79.3% | 83.4% | 48.4% |
| COc1cc(-c2nn(-c3cccc(NC(=O)c4ccc(Br)c(C)c4)c3)cc2-c2ccncc2)ccc1Cl | 91.7% | 71% | 79.9% | 85.9% | 83.6% | 34.7% | 91.3% | 41.7% | 75.4% | 76.8% | 78.3% | 80.9% | 84.1% | 114% | 81% | 91.4% | 74.9% |
| COc1cc(-c2nn(-c3cccc(NC(=O)Nc4ccccc4)c3)cc2-c2ccncc2)ccc1Cl | 95.5% | 79.9% | 86.5% | 93.1% | 89.5% | 22.6% | 116% | 72.8% | 85.4% | 90% | 79.3% | 93.7% | 81.2% | 91.3% | 86.2% | 89.9% | 82.7% |
